Test results taken from the NIST ThermoML archive (doi:10.1016/j.jct.2004.10.011).

Test: xn = mol fraction of the nth substance listed
Conditions: 328.15 K, Liquid, Vibrating tube method

CCC(=O)c1ccccc1 [ethyl phenyl ketone] + Cc1ccccc1
mass density [kg/m3]
Conditions | x2 = 0 | x2 = 0.1048 | x2 = 0.2025 | x2 = 0.3006 | x2 = 0.3991 | x2 = 0.4998 | x2 = 0.6004 | x2 = 0.7036 | x2 = 0.8028 | x2 = 0.902
100 kPa | 979.6 | 967.8 | 956.5 | 944.4 | 931.4 | 917.54 | 902.56 | 886.7 | 870.2 | 852.8
2130 kPa | 981.1 | 969.1 | 957.8 | 945.7 | 932.8 | 918.96 | 904.06 | 888.3 | 871.8 | 854.5
4150 kPa | 982.4 | 970.5 | 959.2 | 947.1 | 934.3 | 920.45 | 905.6 | 889.9 | 873.5 | 856.2
6180 kPa | 983.7 | 971.8 | 960.5 | 948.5 | 935.7 | 921.95 | 907.14 | 891.5 | 875.1 | 857.9
8210 kPa | 985 | 973.1 | 961.8 | 949.9 | 937.1 | 923.37 | 908.63 | 893 | 876.7 | 859.6
10230 kPa | 986.2 | 974.5 | 963.2 | 951.2 | 938.5 | 924.82 | 910.11 | 894.5 | 878.3 | 861.2
11250 kPa | 986.9 | 975.1 | 963.8 | 951.9 | 939.2 | 925.52 | 910.85 | 895.3 | 879 | 862
12260 kPa | 987.5 | 975.7 | 964.5 | 952.5 | 939.9 | 926.2 | 911.57 | 896 | 879.8 | 862.8
14290 kPa | 988.7 | 977 | 965.8 | 953.9 | 941.2 | 927.61 | 913.02 | 897.5 | 881.4 | 864.5
16310 kPa | 990 | 978.3 | 967.1 | 955.2 | 942.6 | 928.98 | 914.44 | 898.9 | 882.9 | 866
18340 kPa | 991.2 | 979.5 | 968.3 | 956.5 | 943.9 | 930.34 | 915.83 | 900.4 | 884.4 | 867.6
20370 kPa | 992.3 | 980.8 | 969.6 | 957.7 | 945.2 | 931.69 | 917.22 | 901.8 | 885.8 | 869.1
22390 kPa | 993.5 | 982 | 970.8 | 959 | 946.5 | 933.04 | 918.61 | 903.2 | 887.3 | 870.6
24420 kPa | 994.7 | 983.2 | 972 | 960.2 | 947.7 | 934.34 | 919.95 | 904.6 | 888.7 | 872
26450 kPa | 995.9 | 984.4 | 973.2 | 961.5 | 949 | 935.61 | 921.26 | 905.9 | 890.1 | 873.5
28470 kPa | 997.1 | 985.6 | 974.5 | 962.7 | 950.2 | 936.91 | 922.59 | 907.2 | 891.5 | 874.9
29490 kPa | 997.6 | 986.2 | 975 | 963.3 | 950.8 | 937.56 | 923.26 | 908 | 892.2 | 875.7
30500 kPa | 998.2 | 986.7 | 975.6 | 963.9 | 951.5 | 938.18 | 923.89 | 908.6 | 892.9 | 876.4
32530 kPa | 999.3 | 987.9 | 976.8 | 965.1 | 952.7 | 939.41 | 925.17 | 909.9 | 894.2 | 877.7
34550 kPa | 1000.4 | 989 | 978 | 966.2 | 953.9 | 940.65 | 926.43 | 911.2 | 895.6 | 879.1
36580 kPa | 1001.5 | 990.2 | 979.1 | 967.4 | 955.1 | 941.85 | 927.68 | 912.5 | 896.9 | 880.4
38600 kPa | 1002.6 | 991.3 | 980.3 | 968.6 | 956.2 | 943.07 | 928.95 | 913.7 | 898.2 | 881.8
39620 kPa | 1003.2 | 991.9 | 980.8 | 969.1 | 956.9 | 943.64 | 929.53 | 914.4 | 898.8 | 882.4
